Results taken from ChEMBL document CHEMBL4229477, “Reevaluating the Substrate Specificity of the L-Type Amino Acid Transporter (LAT1)” (J Med Chem, 2018).

Assays:
[1] = biological target: Large neutral amino acids transporter small subunit 1 (Homo sapiens) (UniProt Q01650); experiment: Trans-stimulation of human LAT1 expressed in TREx HEK293 cells assessed as induction of [3H]-gabapentin efflux at 200 uM after 3 mins by scintillation counting analysis relative to L-phenylalanine; format: cell-based
Chain of Large neutral amino acids transporter small subunit 1 (Homo sapiens) (Q01650 whole entry): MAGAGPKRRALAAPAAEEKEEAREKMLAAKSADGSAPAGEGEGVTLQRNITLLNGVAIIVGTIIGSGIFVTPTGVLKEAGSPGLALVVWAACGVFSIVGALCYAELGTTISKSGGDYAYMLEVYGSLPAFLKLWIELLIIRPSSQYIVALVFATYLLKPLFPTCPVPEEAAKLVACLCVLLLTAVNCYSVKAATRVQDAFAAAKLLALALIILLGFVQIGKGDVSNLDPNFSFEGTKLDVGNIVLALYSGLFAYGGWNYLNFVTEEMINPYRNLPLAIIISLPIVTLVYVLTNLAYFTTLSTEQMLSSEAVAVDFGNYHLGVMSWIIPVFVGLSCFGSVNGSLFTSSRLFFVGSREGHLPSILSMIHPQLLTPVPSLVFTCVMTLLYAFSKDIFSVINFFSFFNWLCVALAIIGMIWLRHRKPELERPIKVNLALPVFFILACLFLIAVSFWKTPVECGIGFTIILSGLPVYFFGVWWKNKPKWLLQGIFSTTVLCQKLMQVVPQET

[2] = biological target: Large neutral amino acids transporter small subunit 1 (Homo sapiens) (UniProt Q01650); experiment: Cis-inhibition of human LAT1 expressed in TREx HEK293 cells at 200 uM assessed as inhibition of [3H]-gabapentin uptake at 200 uM preincubated for 3 mins at 37 degC followed by washing with choline buffer and measured after 3 hrs by scintillation counting analysis relative to BCH; format: cell-based
N[C@@H](Cc1ccccc1)C(=O)O [3] = experiment: (§1) Substrate activity at recombinant human LAT1 expressed in Xenopus laevis oocytes assessed as Km by measuring L-[14C]-leucine uptake by Eadie-Hofstee plot method; format: cell-based
N[C@H](Cc1ccccc1)C(=O)O = experiment: as §1; format: cell-based
N[C@@H](Cc1ccccc1)C(=O)O [4] = experiment: Binding affinity to LAT1 (unknown origin) by in-vitro cell uptake assay; conditions: Homo sapiens

Chain of Large neutral amino acids transporter small subunit 1 (Homo sapiens), Q01650 (Q01650 whole entry): as above

Compound | Activity [1] [%] | inhibition [2] [%] | Km (N[C@@H](Cc1ccccc1)C(=O)O [3]) [µM] | Km (N[C@H](Cc1ccccc1)C(=O)O) [µM] | Km (N[C@@H](Cc1ccccc1)C(=O)O [4]) [µM]
N[C@@H](Cc1cccc(Cc2ccccc2)c1)C(=O)O | 29 |  |  |  | 
COC(=O)Cc1cccc(C[C@H](N)C(=O)O)c1 | 52 | 72 |  |  | 
N[C@@H](Cc1c[nH]cn1)C(=O)O | 140 | 92 |  |  | 
N[C@H](Cc1cccc(C(=O)O)c1)C(=O)O | 31 | 9 |  |  | 
CSCC[C@](N)(Cc1ccccc1)C(=O)O | 56 | 21 |  |  | 
COC(=O)c1cccc(C[C@@H](N)C(=O)O)c1 | 41 | 40 |  |  | 
NCC(=O)O | 29 |  |  |  | 
CC(=O)Oc1cccc(C[C@H](N)C(=O)O)c1 | 37 | 54 |  |  | 
CC[C@H](C)[C@@H](N)C(=O)O | 78 | 18 |  |  | 
N[C@@H](Cc1cccc(C(=O)O)c1)C(=O)O | 56 | 69 |  |  | 
N[C@@H](Cc1cccc(C(F)(F)F)c1)C(=O)O | 59 | 87 |  |  | 
CC(C)(C)c1cccc(C[C@H](N)C(=O)O)c1 | 44 | 101 |  |  | 
CC(=O)Nc1cccc(C[C@H](N)C(=O)O)c1 | 110 | 85 |  |  | 
Cc1cccc(C[C@H](N)C(=O)O)c1 | 140 |  |  |  | 
CC[C@H](C)[C@H](N)C(=O)O | 93 |  |  |  | 
N[C@@H](CCC(=O)O)C(=O)O | 27 | -2.4 |  |  | 
N=C(N)NCCC[C@H](N)C(=O)O | 28 |  |  |  | 
CC(C)[C@@H](N)C(=O)O | 41 | 11 |  |  | 
Nc1cccc(C[C@H](N)C(=O)O)c1 | 100 | 100 |  |  | 
COC(=O)c1cccc(C[C@H](N)C(=O)O)c1 | 89 | 81 |  |  | 
N[C@@H](Cc1cccc(CO)c1)C(=O)O | 120 | 99 |  |  | 
N[C@H](Cc1ccccc1)C(=O)O | 96 | 74 |  |  | 
CC(=O)c1cccc(C[C@H](N)C(=O)O)c1 | 96 | 100 |  |  | 
N[C@H](Cc1c[nH]cn1)C(=O)O | 78 | 33 |  |  | 
N#Cc1cccc(C[C@H](N)C(=O)O)c1 | 70 | 67 |  |  | 
N[C@@](Cc1ccccc1)(Cc1c[nH]cn1)C(=O)O | 13 | 19 |  |  | 

Compound | Activity [1] [%] | inhibition [2] [%] | Km (N[C@@H](Cc1ccccc1)C(=O)O [3]) [µM] | Km (N[C@H](Cc1ccccc1)C(=O)O) [µM] | Km (N[C@@H](Cc1ccccc1)C(=O)O [4]) [µM]
Large neutral amino acids transporter small subunit 1 (Homo sapiens), Q01650 |  |  | 14.2 | 121 | 11
N[C@H](Cc1c[nH]c2ccccc12)C(=O)O | 81 | 29 |  |  | 
N[C@@H](Cc1cccc(CC(=O)O)c1)C(=O)O | 24 | 25 |  |  | 
N[C@@H](Cc1ccccc1)C(=O)O | 100 |  |  |  | 
CC(C)[C@H](N)C(=O)O | 100 | 43 |  |  | 
CNC(=O)c1cccc(C[C@H](N)C(=O)O)c1 | 100 | 88 |  |  | 
CSCC[C@@](N)(Cc1ccccc1)C(=O)O | 27 | -0.2 |  |  | 
NCc1cccc(C[C@H](N)C(=O)O)c1 | 78 | 27 |  |  | 
COC(=O)c1ccc(C[C@H](N)C(=O)O)cc1 | 67 | 37 |  |  | 
N[C@@H](Cc1ccc(O)cc1)C(=O)O | 96 |  |  |  | 
N[C@@H](Cc1cn(Cc2ccccc2)cn1)C(=O)O | 81 | 74 |  |  | 
N[C@@H](Cc1cccc(C(=O)OCCO)c1)C(=O)O | 74 | 81 |  |  | 
CC(C)(C)OC(=O)c1cccc(C[C@H](N)C(=O)O)c1 | 70 | 99 |  |  | 
NCCCC[C@H](N)C(=O)O | 33 | -2.1 |  |  | 
NC(Cc1ccccc1)(Cc1ccccc1)C(=O)O | 23 | 11 |  |  | 
CSCC[C@@H](N)C(=O)O | 110 | 56 |  |  | 
N[C@@H](Cc1c[nH]c2ccccc12)C(=O)O | 59 |  |  |  | 
CSCC[C@H](N)C(=O)O | 89 |  |  |  | 
Cc1ccc(C[C@H](N)C(=O)O)cc1 | 100 |  |  |  | 
Cc1cc(C[C@H](N)C(=O)O)cc(C(=O)O)c1 | 28 | 30 |  |  | 
N[C@@H](Cc1cccc(-c2ccccc2)c1)C(=O)O | 29 |  |  |  | 
N[C@H](Cc1ccc(O)cc1)C(=O)O | 85 | 35 |  |  | 
N[C@@H](Cc1cccc(O)c1)C(=O)O | 96 | 97 |  |  | 
COC(=O)c1cc(C)cc(C[C@H](N)C(=O)O)c1 | 56 | 71 |  |  | 
CC(C)C[C@](N)(Cc1ccccc1)C(=O)O | 19 | 15 |  |  | 
CC(C)C[C@@](N)(Cc1ccccc1)C(=O)O | 27 | 2.1 |  |  | 
